Measured values reported in US20110280940A1, “Di-Vanilloyl And Tri-Vanilloyl Derivatives For Use In Anti-Cancer Therapy” (priority 2008, published 2011).

What was measured:
[1] = test system: Eleven human cancer cell lines; test: MTT colorimetric assay, across the eleven human cancer cell lines; assay type: cell-based; conditions: mean ± SEM over the 11 human cancer cell lines, MTT, 72 hours; read-out: In Vitro IC50 Growth Inhibitory Values, m ± SEM
Text: (§1) The amount of formazan obtained at the end of the experiment, measured by means of a spectrophotometer, is directly proportional to the number of living cells. Optical density determination thus enabled a quantitative measurement of the effect of the investigated compounds as compared to the control condition (untreated cells) and/or to other reference compounds. Eleven human cancer cell lines and one mouse melanoma cell-line (B16F10) described in Table 2 were used in the following MTT tests. These cancer cell lines cover seven histological cancer types including prostate (PC3), glioma (Hs683, T98G, U373, melanoma (VM21, VM28), non-small-cell-lung (A549), breast (MCF-7), colon (LoVo) and oesophageal (OE21, OE33) cancers. […] Each cell line was seeded in its appropriate culture medium. The detailed experimental procedure was the following: after a 24-hour period of incubation at 37° C., the culture medium was replaced by 100 μl of fresh medium in which the tested compound was previously dissolved, at the following molar concentrations: 10^-8 […] and 10^-4 M. Each experiment was performed in sestuplicates (6 times). After 72 hours of incubation at 37° C. with (experimental conditions) or without (control condition) the compound to be tested, the medium was replaced by 100 μl MTT dissolved in RPMI (1640 without phenol red) at a concentration of 0.5 or 1 mg/ml. The micro-wells were subsequently incubated during 3 hours and a half at 37° C. and centrifuged at 1300 rpm during 10 minutes. MTT was removed and formazan crystals formed were dissolved in 100 μl DMSO. The micro-wells were shaken for 5 minutes and read on a spectrophotometer at wavelengths of 570 nm (maximal formazan absorbance). For each experimental condition, the mean optical density was calculated, allowing the determination of the percentage of remaining living cells in comparison to the control. […] The origin of all the cell lines we used, along with their biological characteristics, and the validation procedures of the MTT colorimetric assay as employed here are fully detailed in Van Quaquebeke et al., 2005, J Med Chem 48:849-856; […]

[2] = test system: U373-MG glioma cell line; test: Cellular imaging (quantitative videomicroscopy), global growth ratio, U373; assay type: cell-based; conditions: Homo sapiens, 50 μM, 72 h, read-out: Global Grow Ratio Treated/Ct (GGR T/Ct) determined by Video Quantitative microscopy, U373
Text: (§2) As the MTT test is based on the mitochondria functions, we also investigated the effects of the di- and tri-vanilloyl derivatives according to the invention on cell proliferation, migration and morphology by means of a cellular imaging approach (Debeir et al., Cytometry 60:29-40, 2004; Debeir et al., IEEE Trans Med Imaging 24:697-711, 2005) either in the human U373-MG glioma cell line, which is apoptosis-resistant but autophagy-sensitive (Lefranc F et al., Neurosurgery 2008) and in the human A549 non-small-cell-lung cancer cell line, which is apoptosis-resistant and autophagy-resistant (Mijatovic T et al., Neoplasia 2006, May; 8(5):402-12).
(§3) Investigations have also been performed in human normal fibroblasts (WS1 and WI38—see Tables 4 and 5). Cellular imaging relied on the use of computer-assisted phase-contrast microscopy making possible to film the behaviour of living cells in culture dishes for several days.
(§4) Cells were seeded in a 25-cm^2 flask at a low density, treated or not with the vanilloyl-esters invention (at a concentration of 50 μM) and filmed thereafter for a period of 72 h. The experiment was conducted in quadruplicates (in duplicates for DLT-95 compounds).
(§5) The behaviour of the cells, in terms of morphology, growth and death were thus investigated. The effect on the overall growth was measured by counting the number of cells on the first (0 h) and the last image (72 h) of each film. The global growth ratio (GGR) was then deduced by dividing the number of cells on the last image by the number of cells on the first image. The ratio GGRtreated cells/GGRcontrol cells, was further calculated thereby obtaining a value that describes the effect of compounds of the present invention on the overall cell growth. The methodology is fully described and validated in Debeir et al., 2008, Exp Cell Res 314:2985-2998 and Mathieu et al., 2009, J Cell Mol Med, Feb. 20, 2009.
(§6) Illustrative pictures (time=0 h and 72 h) of glioblastoma and normal fibroblast cell line left untreated or treated with poly-vanillic compounds according to the invention (50 μM) are provided in FIG. 1 (U373 glioblastoma) and FIG. 2 (normal fibroblasts). The GGR parameter analyses confirmed the marked impairment of cell growth in both cancer cell lines of the poly-vanillic compounds according to the invention (Table 5).

[3] = test system: OE33 oesophageal cancer cells; test: MTT colorimetric assay, overall cell growth, OE33; assay type: cell-based, human; conditions: Homo sapiens, OE33, 72 hours of incubation, read-out: In Vitro IC50 Growth Inhibitory Values, OE33
Text: as §1

[4] = test system: A549 non-small-cell-lung cancer cells; test: MTT colorimetric assay, overall cell growth, A549; assay type: cell-based, human; conditions: Homo sapiens, A549, 72 hours of incubation, read-out: In Vitro IC50 Growth Inhibitory Values, A549
Text: as §1

[5] = test system: VM48 melanoma cells; test: MTT colorimetric assay, overall cell growth, VM48; assay type: cell-based, human; conditions: Homo sapiens; MTT, 72 hours of incubation; read-out: In Vitro IC50 Growth Inhibitory Values, VM48
[6] = test system: T98G glioma cells; test: MTT colorimetric assay, overall cell growth, T98G; assay type: cell-based, human; conditions: Homo sapiens, T98G, 72 hours of incubation, read-out: In Vitro IC50 Growth Inhibitory Values, T98G
Text: as §1

[7] = test system: PC-3 prostate cancer cells; test: MTT colorimetric assay, overall cell growth, PC-3; assay type: cell-based, human; conditions: Homo sapiens, 72 hours of incubation, read-out: In Vitro IC50 Growth Inhibitory Values, PC-3
Text: as §1

[8] = test system: LoVo colon cancer cells; test: MTT colorimetric assay, overall cell growth, LoVo; assay type: cell-based, human; conditions: Homo sapiens, LoVo, 72 hours of incubation, read-out: In Vitro IC50 Growth Inhibitory Values, LoVo
Text: as §1

[9] = test system: MCF-7 breast cancer cells; test: MTT colorimetric assay, overall cell growth, MCF-7; assay type: cell-based, human; conditions: Homo sapiens, MCF7, 72 hours of incubation, read-out: In Vitro IC50 Growth Inhibitory Values, MCF-7
Text: as §1

[10] = test system: A549 non-small-cell-lung cancer cell line; test: Cellular imaging (quantitative videomicroscopy), global growth ratio, A549; assay type: cell-based; conditions: Homo sapiens, 72 h, read-out: Global Grow Ratio Treated/Ct (GGR T/Ct) determined by Video Quantitative microscopy, A549
Text: as §2, §3, §4, §5, §6

[11] = test system: Hs683 glioma cells; test: MTT colorimetric assay, overall cell growth, Hs683; assay type: cell-based, human; conditions: Homo sapiens, Hs 683, 72 hours of incubation, read-out: In Vitro IC50 Growth Inhibitory Values, Hs683
Text: as §1

[12] = test system: B16F10 melanoma cell-line; test: MTT colorimetric assay, overall cell growth, B16F10; assay type: cell-based, mouse; conditions: Mus musculus, B16-F10, 72 hours of incubation, read-out: In Vitro IC50 Growth Inhibitory Values, B16F10
Text: as §1

[13] = test system: OE21 oesophageal cancer cells; test: MTT colorimetric assay, overall cell growth, OE21; assay type: cell-based, human; conditions: Homo sapiens, OE21, 72 hours of incubation, read-out: In Vitro IC50 Growth Inhibitory Values, OE21
Text: as §1

[14] = test system: U373 glioblastoma cells; test: MTT colorimetric assay, overall cell growth, U373; assay type: cell-based, human; conditions: Homo sapiens, U373 MG, 72 hours of incubation, read-out: In Vitro IC50 Growth Inhibitory Values, U373
Text: as §1

[15] = test system: VM21 melanoma cells; test: MTT colorimetric assay, overall cell growth, VM21; assay type: cell-based, human; conditions: Homo sapiens; MTT, 72 hours of incubation; read-out: In Vitro IC50 Growth Inhibitory Values, VM21
Text: as §1

[16] = test system: cancer cells versus normal fibroblasts; test: Anti-proliferative, anti-migratory and anti-kinase effects, cancer cells versus normal fibroblasts; assay type: cell-based, human; conditions: anti-proliferative
Text: The compounds of the invention were subsequently evaluated for their 1) anti-proliferative effect (by means of the colorimetric MTT assay), 2) pro-autophagic and pro-apoptotic effect (by means of flow cytometry analyses), and 3) anti-migratory effect (by means of quantitative videomicroscopy), in the following human cancer cell-lines: a) U373, T98G and Hs683 glioblastoma cells, b) VM21 and VM48 melanoma cells, c) PC-3 prostate cancer cells, d) MCF-7 breast cancer cells, e) LoVo colon cancer cells, f) OE21 oesophageal cancer cells, and g) A549 NSCLC cancer cells, as well as in human WS1 and WI38 normal fibroblasts (i.e. non-cancer cells).
The best current hits, DLT12 and DLT4, display anti-proliferative, anti-migratory effects and anti-kinase effects which are ˜10 times more pronounced in cancer cells than in normal fibroblasts. […] FIG. 1 illustrates the data obtained with respect to the human U373 glioblastoma model, while FIG. 2 illustrates the data obtained in human normal fibroblasts. […] DLT-95 and its derivatives DLT-95-F and DLT-95-Cl were also shown to have a significant effect on the proliferation 7 different human cancer cell-lines.

| IC50 [1] [µM] | IC50 [3] [µM] | IC50 [4] [µM] | IC50 [5] [µM] | IC50 [6] [µM] | IC50 [7] [µM] | IC50 [8] [µM] | IC50 [9] [µM] | IC50 [11] [µM] | IC50 [12] [µM] | IC50 [13] [µM] | IC50 [14] [µM] | IC50 [15] [µM] | SMILES | activity at 50 µM [2] [%] | activity at 50 µM [10] [%] | effects more pronounced in cancer cells than in normal fibroblasts [16] [times] |
| --- | --- | --- | --- | --- | --- | --- | --- | --- | --- | --- | --- | --- | --- | --- | --- | --- |
| 47 ± 4 | 66 | 43 | 36 | 70 | 59 | 44 | 47 | 57 | 49 | 41 | 20 | 35 | COc1cc(C(=O)OC2CCCC[C@@H]2OC(=O)c2ccc(O)c(OC)c2)ccc1O (stereo partly drawn) [DLT7, S,S-trans-cyclohexane-1,2-diyl bis-(4-hydroxy-3-methoxybenzoate)] | 20 | 20 |  |
| > 100 | 77 | 76 | 72 | > 100 | 77 | 64 | 75 | > 100 | 59 | 45 | 53 | 77 | COc1cc(C(=O)O[C@@H]2CCCC[C@H]2OC(=O)c2ccc(O)c(OC)c2)ccc1O [DLT8, R,R-trans-cyclohexane-1,2-diyl bis-(4-hydroxy-3-methoxybenzoate)] | 50 | 50 |  |
| 46 |  |  | 38 |  |  |  |  |  |  |  |  | 32 | COc1cc(C(=O)OCCCCCCCOC(=O)c2ccc(O)c(OC)c2)ccc1O [DLT12, Heptane-1,7-diyl bis-(4-hydroxy-3-methoxybenzoate)] | 20 | 20 | ~10 |
| 48 ± 3 |  |  | 57 | 76 | 35 |  |  | 49 |  |  | 43 | 44 | COc1cc(C(=O)O[C@H]2CCCC[C@H]2OC(=O)c2ccc(O)c(OC)c2)ccc1O [DLT9, cis-cyclohexane-1,2-diyl bis-(4-hydroxy-3-methoxybenzoate)] | 20 | 20 |  |
